The nature of experiment [1]: Inhibition of CD28-CD80 interaction in the presence of fetal bovine serum (FBS).
For experiment [2], the target named is T-cell surface glycoprotein CD4 (Homo sapiens, UniProt P01730). The experiment can be described thus: Inhibitory concentration against CD4-gp120 binding in the absence of fetal bovine serum (FBS); Range is 0.13-0.5 uM.
Experiment [3] is described as follows: Inhibition of CD28-CD80 interaction in the absence of fetal bovine serum (FBS).

From ChEMBL document CHEMBL1136573, “Condensed aromatic peptide family of microbial metabolites, inhibitors of CD28-CD80 interactions” (Bioorg Med Chem Lett, 2003) come the findings set out here.

SMILES strings stand for the structures.

As a reminder, the IC50 is the concentration at which inhibition is half-maximal. With `CN1C(=O)[C@@H](c2cc(Cl)c(O)c(Cl)c2)NC(=O)[C@@H]2NC(=O)[C@@H](c3cc(Cl)c(O)c(Cl)c3)NC(=O)[C@H](NC(=O)C(=O)c3cc(Cl)c(O)c(Cl)c3)Cc3c[nH]c4c(cccc34)-c3cc2cc(c3O)Oc2ccc(cc2)C[C@H]1C(=O)N[C@@H](C(=O)O)c1ccc(O)cc1` [CHLOROPEPTIN], the figures for the IC50 in experiment [1], in experiment [2] and in experiment [3] were 0.38 µM, 0.13 µM and 0.01 µM, respectively.

`CN1C(=O)[C@@H](c2cc(Cl)c(O)c(Cl)c2)NC(=O)[C@@H]2NC(=O)[C@@H](c3cc(Cl)c(O)c(Cl)c3)NC(=O)[C@H](NC(=O)C(=O)c3cc(Cl)c(O)c(Cl)c3)Cc3c[nH]c4cc(ccc34)-c3cc2cc(c3O)Oc2ccc(cc2)C[C@H]1C(=O)N[C@@H](C(=O)O)c1ccc(O)cc1` [ISOCOMPLESTATIN]: the IC50 in experiment [1] was determined as 0.42 µM; in experiment [2], 0.13 µM; in experiment [3], 0.01 µM.

`CC(=O)CC(O)(C(=O)N[C@@H]1Cc2c[nH]c3cc(ccc23)-c2cc3cc(c2O)Oc2ccc(cc2)C[C@@H](C(=O)N[C@@H](C(=O)O)c2ccc(O)cc2)N(C)C(=O)[C@@H](c2cc(Cl)c(O)c(Cl)c2)NC(=O)[C@@H]3NC(=O)[C@@H](c2cc(Cl)c(O)c(Cl)c2)NC1=O)c1cc(Cl)c(O)c(Cl)c1` (some centres undefined): the IC50 in experiment [1] turned out to be 0.22 µM; in experiment [2], 0.13 µM; in experiment [3] it was 0.008 µM.
